Reference: US20040176431A1, “Antiproliferative 2-(sulfo-phenyl)-aminothiazole derivatives and pharmaceutical compositions, and methods for their use” (Pfizer, Inc., priority 2003, published 2004)

Target: T1, CDK4/cyclin D3 (Homo sapiens, UniProt P11802)
T1 construct: made in house; host or cells: insect cells (baculovirus co-infection)
Assay: Inhibition of CDK4/Cyclin D retinoblastoma kinase activity;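 for % Inhib CDK4/D @ 1 μM: relative to DMSO control wells without compound minus no-enzyme background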
Type: biochemical
Conditions: for inhibition at 0.1 µM / % Inhib CDK4/D @ 0.1 μM: test compound at 0.1 μM; for inhibition at 0.1 µM: read-out: % Inhib CDK4/D @ 0.1 μM; for % Inhib CDK4/D @ 1 μM / inhibition at 1 µM: test compound at 1 μM (head line shifted: 'mM' printed beside 'Structure'); for % Inhib CDK4/D @ 0.03 / inhibition at 0.03 µM: test compound at 0.03 (unit cell empty, head line shifted; μM); for inhibition at 0.03 µM: read-out: % Inhib CDK4/D @ 0.03; for inhibition at 1 µM: read-out: % Inhib CDK4/D @ 1 μM
Procedure, shortened: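 Apparent Ki derived by fitting activity at varied inhibitor concentrations to competitive (or competitive tight-binding) inhibition equations, background without enzyme subtracted. Radiometric filter-binding read-out of Rb(386-928) phosphorylation by 5 nM CDK4/cyclin D3(1-264); 25 μM ATP, pH 7.4, 2% DMSO, 30° C., 20 min, extended to 60 min for tight binders.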

T1 sequence (P11802 whole entry): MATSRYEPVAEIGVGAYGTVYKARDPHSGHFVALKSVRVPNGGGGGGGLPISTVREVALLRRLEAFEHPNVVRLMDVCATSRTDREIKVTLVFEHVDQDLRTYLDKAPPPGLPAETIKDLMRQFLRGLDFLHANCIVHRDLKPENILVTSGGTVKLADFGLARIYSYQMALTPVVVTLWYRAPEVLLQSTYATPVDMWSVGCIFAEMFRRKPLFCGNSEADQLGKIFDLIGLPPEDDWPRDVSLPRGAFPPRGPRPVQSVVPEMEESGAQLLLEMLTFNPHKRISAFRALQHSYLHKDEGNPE
T1 sequence (P30281 1-264 partner limits assumed): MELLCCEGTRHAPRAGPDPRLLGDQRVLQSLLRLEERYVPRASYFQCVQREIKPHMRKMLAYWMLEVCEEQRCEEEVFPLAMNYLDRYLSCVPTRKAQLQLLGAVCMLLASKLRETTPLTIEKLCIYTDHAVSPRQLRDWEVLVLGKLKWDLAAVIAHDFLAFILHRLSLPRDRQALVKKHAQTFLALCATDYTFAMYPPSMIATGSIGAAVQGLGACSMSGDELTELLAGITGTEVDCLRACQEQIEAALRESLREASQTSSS

Compound	inhibition at 0.1 µM	% Inhib CDK4/D @ 1 μM	% Inhib CDK4/D @ 0.03	inhibition at 0.03 µM	% Inhib CDK4/D @ 0.1 μM (0.1 µM)	inhibition at 1 µM	% Inhib CDK4/D @ 0.1 μM
CC(C)CCS(=O)(=O)c1ccc(Nc2nc(N)c(C(=O)c3c(Cl)cccc3Cl)s2)cc1 [DD(173)]	17%	14.5%	−11%				
Nc1nc(Nc2ccc(S(=O)(=O)CC(=O)Nc3ccccc3)cc2)sc1C(=O)c1c(Cl)cccc1Cl [DD(175)]	23%	12.4%	−14%				
COc1cccc(CS(=O)(=O)c2ccc(Nc3nc(N)c(C(=O)c4c(Cl)cccc4Cl)s3)cc2)c1 [DD(177)]		3.2%	−29%		15%		
Nc1nc(Nc2ccc(S(=O)(=O)CC3CCCO3)cc2)sc1C(=O)c1c(Cl)cccc1Cl (stereo not drawn) [DD(178)]			−27%		16%	16.6%	
CN1CCCC1CCS(=O)(=O)c1ccc(Nc2nc(N)c(C(=O)c3c(Cl)cccc3Cl)s2)cc1 (stereo not drawn) [DD(179)]	24%	9.4%	−1.1%				
CC1(CS(=O)(=O)c2ccc(Nc3nc(N)c(C(=O)c4c(Cl)cccc4Cl)s3)cc2)CO1 (stereo not drawn) [DD(180)]		4.2%	−14%		13%		
CN1CCCC(CS(=O)(=O)c2ccc(Nc3nc(N)c(C(=O)c4c(Cl)cccc4Cl)s3)cc2)C1 (stereo not drawn) [DD(187)]	24%	−6.4%	6%				
CC(C)CCCS(=O)(=O)c1ccc(Nc2nc(N)c(C(=O)c3c(Cl)cccc3Cl)s2)cc1 [DD(190)]	25%	33.4%	−21%				
Nc1nc(Nc2ccc(S(=O)(=O)Cc3ccccc3)cc2)sc1C(=O)c1c(Cl)cccc1Cl [DD(195)]	25%			3.8%		22.3%	
CCC(CC)S(=O)(=O)c1ccc(Nc2nc(N)c(C(=O)c3c(Cl)cccc3Cl)s2)cc1 [DD(196)]	15%			1.3%		14.4%	
CC(C)OC(=O)CCS(=O)(=O)c1ccc(Nc2nc(N)c(C(=O)c3c(Cl)cccc3Cl)s2)cc1 [DD(198)]	9.2%			-24%		5.1%	
Nc1nc(Nc2ccc(S(=O)(=O)CCN3CCOCC3)cc2)sc1C(=O)c1c(Cl)cccc1Cl [DD(199)]	31%	40.5%	−7.7%				
CC(C)(CO)CS(=O)(=O)c1ccc(Nc2nc(N)c(C(=O)c3c(Cl)cccc3Cl)s2)cc1 [DD(200)]	22%	22.4%	−13%				
Cc1noc(C)c1CS(=O)(=O)c1ccc(Nc2nc(N)c(C(=O)c3c(Cl)cccc3Cl)s2)cc1 [DD(202)]		45.2%	17%		29%		
Nc1nc(Nc2ccc(S(=O)(=O)CCN3CCCC3)cc2)sc1C(=O)c1c(Cl)cccc1Cl [DD(207)]		36.8%	−9.9%		41%		
Nc1nc(Nc2ccc(S(=O)(=O)Cc3ncon3)cc2)sc1C(=O)c1c(Cl)cccc1Cl [DD(208)]		47.8%	0.2%		36%		
Nc1nc(Nc2ccc(S(=O)(=O)CC3CNC(=O)O3)cc2)sc1C(=O)c1c(Cl)cccc1Cl (stereo not drawn) [DD(209)]		−21%	−10%		8%		
CN(C)CCCS(=O)(=O)c1ccc(N(C)c2nc(N)c(C(=O)c3c(Cl)cccc3Cl)s2)cc1 [DD(210)]	21%			-22%		-37%	
Nc1nc(Nc2ccc(S(=O)(=O)CCN3CCCCC3)cc2)sc1C(=O)c1c(Cl)cccc1Cl [DD(211)]		−0.2%	−11%				21%
CC(C)CCS(=O)(=O)c1ccc(Nc2nc(N)c(C(=O)c3c(Cl)cccc3Cl)s2)cc1 [DD(213)]		−11%	−22%		14%		
Nc1nc(Nc2ccc(S(=O)(=O)CC(=O)Nc3ccccc3)cc2)sc1C(=O)c1c(Cl)cccc1Cl [DD(215)]		4.9%	−15%		25%		
COc1cccc(CS(=O)(=O)c2ccc(Nc3nc(N)c(C(=O)c4c(Cl)cccc4Cl)s3)cc2)c1 [DD(217)]		−21%	−8%		39%		

Next, values leading:

inhibition at 0.1 µM	% Inhib CDK4/D @ 1 μM	% Inhib CDK4/D @ 0.03	inhibition at 0.03 µM	% Inhib CDK4/D @ 0.1 μM (0.1 µM)	inhibition at 1 µM	% Inhib CDK4/D @ 0.1 μM	Compound
24%	24.9%	−26%					Nc1nc(Nc2ccc(S(=O)(=O)CC3CO3)cc2)sc1C(=O)c1c(Cl)cccc1Cl (stereo not drawn) [DD(172)]
24%	24.6%	−16%					COCCS(=O)(=O)c1ccc(Nc2nc(N)c(C(=O)c3c(Cl)cccc3Cl)s2)cc1 [DD(174)]
13%	5.4%		17%				Nc1nc(Nc2ccc(S(=O)(=O)CC3CC3)cc2)sc1C(=O)c1c(Cl)cccc1Cl [DD(176)]
28%		−10%			27.5%		NC(=O)CS(=O)(=O)c1ccc(Nc2nc(N)c(C(=O)c3c(Cl)cccc3Cl)s2)cc1 [DD(181)]
	5.4%	−12%		17%			CCOC(=O)CCS(=O)(=O)c1ccc(Nc2nc(N)c(C(=O)c3c(Cl)cccc3Cl)s2)cc1 [DD(182))]
	1.9%	8.6%		17%			CC(C)OC(=O)CS(=O)(=O)c1ccc(Nc2nc(N)c(C(=O)c3c(Cl)cccc3Cl)s2)cc1 [DD(183)]
9%	−3.3%	1.6%					CC(C)=CCS(=O)(=O)c1ccc(Nc2nc(N)c(C(=O)c3c(Cl)cccc3Cl)s2)cc1 [DD(184)]
33%	22.3%	8.5%					CCCS(=O)(=O)c1ccc(Nc2nc(N)c(C(=O)c3c(Cl)cccc3Cl)s2)cc1 [DD(185)]
26%	38.9%	7%					COC(=O)CS(=O)(=O)c1ccc(Nc2nc(N)c(C(=O)c3c(Cl)cccc3Cl)s2)cc1 [DD(186)]
35%		−11%			25.9%		NC(=O)CCS(=O)(=O)c1ccc(Nc2nc(N)c(C(=O)c3c(Cl)cccc3Cl)s2)cc1 [DD(188)]
31%	32.2%	−19%					Nc1nc(Nc2ccc(S(=O)(=O)CCO)cc2)sc1C(=O)c1c(Cl)cccc1Cl [DD(189)]
	9.3%	−24%		31%			CC(C)CCOC(=O)CS(=O)(=O)c1ccc(Nc2nc(N)c(C(=O)c3c(Cl)cccc3Cl)s2)cc1 [DD(191)]
	−29%	5.6%		11%			CC(C)CCOC(=O)CS(=O)(=O)c1ccc(Nc2nc(N)c(C(=O)c3c(Cl)cccc3Cl)s2)cc1 [DD(192)]
	61.1%	−2.9%		31%			CC(C)CCOC(=O)CS(=O)(=O)c1ccc(Nc2nc(N)c(C(=O)c3c(Cl)cccc3Cl)s2)cc1 [DD(193)]
	6.3%	−29%		32%			CC(C)CCOC(=O)CS(=O)(=O)c1ccc(Nc2nc(N)c(C(=O)c3c(Cl)cccc3Cl)s2)cc1 [DD(194)]
37%	62.3%	6.5%					CC(=O)OCCS(=O)(=O)c1ccc(Nc2nc(N)c(C(=O)c3c(Cl)cccc3Cl)s2)cc1 [DD(197)]
	10.3%	3.5%		36%			CCN(CC)C(=O)CS(=O)(=O)c1ccc(Nc2nc(N)c(C(=O)c3c(Cl)cccc3Cl)s2)cc1 [DD(201)]
	33.7%	−5.5%		37%			COC(=O)/C=C/CS(=O)(=O)c1ccc(Nc2nc(N)c(C(=O)c3c(Cl)cccc3Cl)s2)cc1 [DD(203)]
	20.8%	−3.4%		29%			COC(=O)/C=C/CS(=O)(=O)c1ccc(Nc2nc(N)c(C(=O)c3c(Cl)cccc3Cl)s2)cc1 [DD(204)]
	56.4%	−4.1%		43%			Nc1nc(Nc2ccc(S(=O)(=O)CCCO)cc2)sc1C(=O)c1c(Cl)cccc1Cl [DD(205)]
	47.3%	−11%		24%			C=CCCS(=O)(=O)c1ccc(Nc2nc(N)c(C(=O)c3c(Cl)cccc3Cl)s2)cc1 [DD(206)]
	−14%	−16%		17%			Nc1nc(Nc2ccc(S(=O)(=O)CC3CO3)cc2)sc1C(=O)c1c(Cl)cccc1Cl (stereo not drawn) [DD(212)]
	60.6%	−10%		29%			COCCS(=O)(=O)c1ccc(Nc2nc(N)c(C(=O)c3c(Cl)cccc3Cl)s2)cc1 [DD(214)]
	47.1%	12%		20%			Nc1nc(Nc2ccc(S(=O)(=O)CC3CC3)cc2)sc1C(=O)c1c(Cl)cccc1Cl [DD(216)]
